Laboratory results as given in patent US20250034151A1, “WEE1 INHIBITOR, PREPARATION THEREFOR, AND USE THEREOF” (JIANGSU TASLY DIYI PHARMACEUTICAL CO., LTD., priority 2022, published 2025).

Tests used:
[1] = Membrane permeability study (Caco-2); assay type: in vitro ADME; conditions: human; for Papp A→B at 90 min, 10 µM / Papp B→A at 90 min, 10 µM: pH 7.4, Caco-2, 10 μM; for Papp A→B at 90 min, 10 µM: apical to basolateral; for Papp B→A at 90 min, 10 µM: basolateral to apical
Description: Caco-2 cells were purchased from the […] (Rockville, MD). The cell culture medium was modified Eagle's medium (MEM) containing 10% inactivated fetal bovine serum and 1% non-essential amino acids.
The cells were incubated for 21-28 days after inoculation for transport experiments and the apparent permeability (Papp) of Lucifer Yellow was used to characterize and verify the compactness of the cell monolayer. […] A 10 μM working solution of the compound to be tested was added to the apical side and basolateral side of Caco-2 and incubated at 37° C. for 90 min. After the incubation, dilute the samples on the apical side and basolateral side, and the concentrations of compounds on the apical and basolateral sides were detected by LC-MS/MS, and the concentrations of the compounds were quantified by standard curve.

MIA PaCa2 cells = assay: Anti-proliferative effect on MIA PaCa2 cells by Cell Titer-Glo; assay type: cell-based; conditions: Homo sapiens, MIA PaCa-2, 72 h, 3 days, read-out: MIA PaCa 2 (IC50, inhibition of proliferation in vitro)
How it was run: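 Cells exposed to graded compound concentrations for 3 days at 37° C, 5% CO2, final DMSO 0.2%; viability read by CellTiter-Glo luminescence. Inhibition normalised to untreated cells (max) and medium (min); IC50 fitted by variable-slope log(inhibitor)-response model.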

H1299 cells = assay: Anti-proliferative effect on H1299 cells by Cell Titer-Glo; assay type: cell-based; conditions: Homo sapiens, NCI-H1299, 72 h, 3 days, read-out: H1299 (IC50, inhibition of proliferation in vitro)
How it was run: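 H1299 cells exposed to compound dilutions for 3 days at 37 °C, 5% CO2, final DMSO 0.2%. Viability read by CellTiter-Glo luminescence, normalised to untreated-cell (max) and medium (min) controls. IC50 from a variable-slope log(inhibitor) vs. response fit.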

[2] = Plasma protein binding (PPB), equilibrium dialysis; assay type: in vitro ADME; conditions: mouse plasma, 5 h dialysis
Description: 1. Experimental Procedure
2. Data Processing and Parameter Calculation

[3] = Pharmacokinetics on single dose in mice (intravenous and oral); assay type: in vivo, ICR mice; conditions: for F/%: Oral 10 mg/kg vs Intravenous 1 mg/kg; for Cmax / half-life / AUC(0-t) / MRT: male, ICR, mouse, plasma
Description: 1. Experimental Aim: The present experiment aimed to obtain the pharmacokinetic profile of the subject compounds in ICR mice (both intravenous and oral) 3.1.2 Test System Species: SPF grade male ICR mice Body weight/weekly age: about 30 g 4. […] 4.2 Subjects Given (Route) Intravenous: 1 mg/kg in a volume of 5 mL/kg Gavage: 10 mg/kg in a volume of 10 mL/kg Ultrasound for 5 min before administration 4.3 Subject Preparation (Concentration) Intravenous: 0.2 mg/mL Gavage: 1 mg/mL Fast overnight before administration and feed four hours after administration. […] The blood samples were stored in a refrigerator at or below −20° C. for LC-MS/MS analysis. […] LC-MS/MS Analytical Detection Used 5. Data Processing The samples were detected for drug concentration at each time point by LC-MS/MS. Pharmacokinetic parameters terminal elimination half-life (t1/2), area under the curve (AUC), apparent volume of distribution (Vd), clearance (CL), mean residence time (MRT), and Cmax were calculated using the non-compartmental model of Phoenix WinNonlin 5.2. Bioavailability (F %) was directly from serum concentration results. Mean±standard deviation (X±SD) was used for blood concentration and pharmacokinetic parameters, etc. Specific testing and analytical methods were specified in the form of protocol revisions.

## C=CCn1c(=O)c2cnc(Nc3ccc(N4CCN(C)CC4)cc3)nc2n1-c1cccc(C(C)(C)O)n1 [AZD1775]
[1]
  Papp A→B at 90 min, 10 µM: 15.6 ×10⁻⁶ cm/s
  Papp B→A at 90 min, 10 µM: 39.8 ×10⁻⁶ cm/s
MIA PaCa2 cells
  IC50: 100 to 1000 nM
H1299 cells
  IC50: 100 to 1000 nM
[2]
  fraction unbound at 5 h, 1 µM: 0.087
[3]
  F/%: 32%
[3]; Intravenous, 1 mg/kg
  Cmax: 250 ng/mL
  half-life: 30 min

## C=CCn1c(=O)c2cnc(Nc3ccc(N4CC5CC(C4)N5C)cc3)nc2n1-c1cccc(C(C)(C)O)n1 [Compound 27]
[1]; Caco-2, pH 7.4
  efflux ratio at 90 min, 10 µM: 17.4
[1]
  Papp A→B at 90 min, 10 µM: 3.07 ×10⁻⁶ cm/s
  Papp B→A at 90 min, 10 µM: 53.5 ×10⁻⁶ cm/s
MIA PaCa2 cells
  IC50: 100 to 1000 nM
H1299 cells
  IC50: 100 to 1000 nM
[2]
  fraction unbound at 5 h, 1 µM: 0.141
[3]
  F/%: 28.6%
[3]; Intravenous, 1 mg/kg
  AUC(0-t): 134 ng·h/mL
  Cmax: 170 ng/mL
  MRT: 39.6 min
  half-life: 46.8 min
[3]; Oral, 10 mg/kg
  AUC(0-t): 285 ng·h/mL
  Cmax: 392 ng/mL
  MRT: 66 min
  half-life: 61.8 min
